≈ marks a conversion by molar mass, not a printed value. Where “and” joins values, the source holds several entries; their conditions need not be identical. Equal entries are not always repeated. Where two headings read alike, the source gives them in different places.
Key:
S. aureus [1] = conditions: S. aureus MMX 101 (ATCC 29213); cited from earlier work
S. aureus [2] = test: Broth microdilution MIC (Example 11); assay type: cell-based, Staphylococcus aureus; conditions: Staphylococcus aureus, ATCC 29213 / MSSA, S. aureus MMX 101 (ATCC 29213); QC; MSSA; read-out: MIC
Enterococcus spp. = test: Broth microdilution MIC (Example 11); assay type: cell-based, E. faecalis, E. faecium; conditions: Lev^R Cip^R Ery^R, read-out: MIC
[3] = system: Anaerobes (Bacteroides fragilis, Clostridium difficile); test: Agar dilution MIC (Example 11); assay type: cell-based; conditions: read-out: MIC
Method: The susceptibility of anaerobic bacteria was determined by agar dilution using Brucella Agar (BD/BBL; Lot No. 5237692) supplemented with 5 μg/mL hemin (Sigma, St. Louis, Mo.; Lot No. 108K1088), 1 μg/mL Vitamin K1 and 5% (v/v) laked sheep blood (Cleveland Scientific, Bath, Ohio; Lot No. 322799).
Agar Dilution MIC Testing (Anaerobic Bacteria and Gonococci): MIC values for anaerobic bacteria were determined using a reference agar dilution method as described by CLSI (6). Organisms were grown at 35° C. in the Bactron II Anaerobic Chamber (Shel Lab, Cornelius, Oreg.) for approximately 48 hr prior to the assay. Drug dilutions and drug-supplemented agar plates were prepared manually per CLSI (6). The plates were allowed to stand at room temperature for 1 hr to allow the agar surface to dry and pre-reduced for approximately 1 hr in the anaerobe chamber prior to inoculation. Each isolate was suspended to the equivalent of a 0.5 McFarland standard in Brucella broth using a turbidity meter (Dade Behring MicroScan, West Sacramento, Calif.). Each bacterial cell suspension was then diluted 1:10 in Brucella broth and transferred to wells in a stainless steel replicator block which was used to inoculate the test plates. The prongs on the replicator deliver approximately 1-2 μl of inoculum to an agar surface. The resulting inoculum spots contained approximately 1×10^5 CFU/spot. After the inoculum dried, the inoculated drug-supplemented agar plates and no drug growth control plates were incubated at 35° C. for 42-48 hr in the anaerobe chamber. The MIC was read per CLSI guidelines (6).

[4] = system: vancomycin-intermediate Staphylococcus aureus (VISA); test: Broth microdilution MIC (Example 12); assay type: cell-based; conditions: Staphylococcus aureus, NRS 13 / VISA, all isolates except NRS 13; read-out: MIC values
[5] = system: Gram-positive aerobic bacteria (S. aureus, MRSA, CA-MRSA); test: MIC90 against 150 clinical isolates of Gram-positive aerobic bacteria; assay type: cell-based; conditions: S. aureus (50 isolates)
[6] = system: Burkholderia cepacia complex; test: Checkerboard FIC/FICI assay; assay type: cell-based, Burkholderia spp.
P. aeruginosa = test: Checkerboard FIC/FICI assay; assay type: cell-based, Pseudomonas aeruginosa; conditions: Tobramycin in combination with BisEDT
[7] = system: Pseudomonas aeruginosa strain PA01; test: Bacterial killing curves with and without CF patient sputum; assay type: cell-based; conditions: tobramycin 1 μg/mL, 10% CF sputum, most time points
M. abscessus complex = test: MIC testing of CF isolates; assay type: cell-based, Mycobacterium abscessus
Enterobacteriaceae = conditions: E. coli MMX 102 (ATCC 25922); CLSI QC ranges shown in parenthesis; cited from earlier work
[8] = system: P. aeruginosa and A. baumannii; conditions: P. aeruginosa MMX 103 (ATCC 27853); CLSI QC ranges shown in parenthesis; cited from earlier work
[9] = assay type: physicochemical
[10] = system: beta-hemolytic streptococci; test: Broth microdilution MIC (Example 11); assay type: cell-based, S. pyogenes, S. agalactiae; conditions: ERY^R CC^R, read-out: MIC
[11] = B. cepacia 1793, Tobramycin in combination with BisEDT, by checkerboard
[12] = P. aeruginosa 6322, one value per panel row C-G
[13] = P. aeruginosa 6977, by checkerboard
[14] = P. aeruginosa 7745, by checkerboard
[15] = P. aeruginosa 9108, by checkerboard
[16] = non-reversing and total heat flow

Structure (SMILES): Cc1onc(-c2ccccc2)c1C(=O)N[C@@H]1C(=O)N2[C@@H]1SC(C)(C)[C@@H]2C(=O)O [Oxacillin]
- CLSI QC range of MIC (S. aureus [1]): (0.12-0.25) μg/mL

Structure (SMILES): CCC[C@@H]1C[C@@H](C(=O)N[C@@H]([C@H]2O[C@H](SC)[C@H](O)[C@@H](O)[C@H]2O)[C@H](C)Cl)N(C)C1 [clindamycin, reference compound]
- MIC (S. aureus [2]): 0.12 µg/mL (≈ 0.282 µM)
- MIC (Enterococcus spp.; E. faecalis MMX 8960, VRE): > 32 µg/mL
- MIC (Enterococcus spp.; E. faecalis MMX 8961, VRE): > 32 µg/mL
- MIC (Enterococcus spp.; E. faecalis MMX 8962, VRE): > 32 µg/mL
- MIC (Enterococcus spp.; E. faecium MMX 485, VRE vanA): > 32 µg/mL
- MIC (Enterococcus spp.; E. faecium MMX 752, VRE vanA): > 32 µg/mL
- MIC ([3]; Bacteroides fragilis, ATCC25285, B. fragilis MMX 123 (ATCC 25285), QC): 1 µg/mL (≈ 2.35 µM)
- MIC ([3]; C. difficile MMX 4381 (ATCC 700057), QC, CC^1): 4 µg/mL (≈ 9.41 µM)
- MIC ([3]; C. difficile MMX 5680 (NCTC 13336), ribotype 027, CC^1 MET^R): 4 µg/mL (≈ 9.41 µM)
- MIC ([3]; C. difficile MMX 5681 (NCTC 13307), ribotype 012, CC^R): > 64 µg/mL
- MIC ([3]; C. difficile MMX 8272, ribotype 255, CC^1): 4 µg/mL (≈ 9.41 µM)
- MIC ([3]; C. difficile MMX 8279, ribotype 005, CC^R): > 64 µg/mL
- MIC ([3]; C. difficile MMX 8281, ribotype 010, CC^R): > 64 µg/mL
- MIC [4]: > 4 µg/mL

Structure (SMILES): C[C@@H](O)[C@H]1C(=O)N2C(C(=O)O)=C(SCCN=CN)C[C@H]12 [IPM]
- MIC90 ([5]; CA-MRSA): 2 µg/mL (≈ 6.68 µM)
- MIC90 ([5]; MRSA): >8 µg/mL
- MIC90 ([5]; MSSA): 0.03 µg/mL (≈ 0.1 µM)

Structure (SMILES): NC[C@H]1O[C@H](O[C@H]2[C@H](O)[C@@H](O[C@H]3O[C@H](CO)[C@@H](O)[C@H](N)[C@H]3O)[C@H](N)C[C@@H]2N)[C@H](N)C[C@@H]1O [tobramycin, Tobramycin, reference compound]
- FICB ([6]; B. cenocepacia 548, FIC of Tobramycin (Drug B) in combination with BisEDT): 0.25 and 0.5
- MICB ([6]; B. cenocepacia 548, MIC of Tobramycin (Drug B) in combination with BisEDT): 8 µg/mL and 16 µg/mL
- FICB ([6]; B. cenocepacia 813, FIC of Tobramycin (Drug B) in combination with BisEDT): 0.5 and 1
- FICB [6, 11]: 0.5 and 1
- MICB [6, 11]: 8 µg/mL and 16 µg/mL
- FICB ([6]; B. multivorans 1795, FIC of Tobramycin (Drug B) in combination with BisEDT): 1
- MICB ([6]; B. multivorans 1795, MIC of Tobramycin (Drug B) in combination with BisEDT): >256 µg/mL
- FICB (P. aeruginosa; [12]): 1
- MICB (P. aeruginosa; [12]): 128 µg/mL
- FICB (P. aeruginosa; [13]): 2
- MICB (P. aeruginosa; [13]): 256 µg/mL
- FICB (P. aeruginosa; [14]): 1
- MICB (P. aeruginosa; [14]): 0.5 µg/mL
- FICB (P. aeruginosa; [15]): 1
- MICB (P. aeruginosa; [15]): 0.0005 µg/mL
- CFU higher in cultures with sputum vs without [7]: 0.5-1 log CFU/mL

Structure (SMILES): CC[C@H]1OC(=O)[C@H](C)[C@@H](O[C@H]2C[C@@](C)(OC)[C@@H](O)[C@H](C)O2)[C@H](C)[C@@H](O[C@@H]2O[C@H](C)C[C@H](N(C)C)[C@H]2O)[C@](C)(OC)C[C@@H](C)C(=O)[C@H](C)[C@@H](O)[C@]1(C)O [CLR]
- MIC (M. abscessus complex; M. abscessus/massiliense complex (AMT0068-40)): 1 µg/mL (≈ 1.34 µM)
- MIC (M. abscessus complex; M. abscessus/massiliense complex (AMT0119-7)): 1 µg/mL (≈ 1.34 µM)
- MIC (M. abscessus complex; M. abscessus/massiliense complex (AMT0493-2), AMK R): 2 µg/mL (≈ 2.67 µM)
- MIC (M. abscessus complex; M. abscessus/massiliense complex (AMT01130-8)): 1 µg/mL (≈ 1.34 µM)
- MIC (M. abscessus complex; M. abscessus/massiliense complex (AMT1539)): 2 µg/mL (≈ 2.67 µM)
- MIC (M. abscessus complex; M. abscessus/massiliense complex (ATCL119977), Macrolide R (inducible)): >32^1 ^ μg/mL

Structure (SMILES): CC(C)(O/N=C(\C(=O)N[C@@H]1C(=O)N2C(C(=O)[O-])=C(C[n+]3ccccc3)CS[C@H]12)c1csc(N)n1)C(=O)O [Ceftazidime]
- CLSI QC range of MIC (S. aureus [1]): (4-16) μg/mL
- MIC, CLSI QC range (Enterobacteriaceae): (0.06-0.5) μg/mL
- MIC (S. aureus [2]): 8 µg/mL (≈ 14.6 µM)
- MIC (Enterococcus spp.; E. faecalis MMX 8960, VRE): > 32 µg/mL
- MIC (Enterococcus spp.; E. faecalis MMX 8961, VRE): > 32 µg/mL
- MIC (Enterococcus spp.; E. faecalis MMX 8962, VRE): > 32 µg/mL
- MIC (Enterococcus spp.; E. faecium MMX 485, VRE vanA): > 32 µg/mL
- MIC (Enterococcus spp.; E. faecium MMX 752, VRE vanA): > 32 µg/mL
- MIC, CLSI QC range [8]: (1-4) μg/mL

Structure (SMILES): C1C[S][Bi]([S]CC[S][Bi]2[S]CC[S]2)[S]1 [X-ray amorphous BisEDT]
- Temperature cycling DSC: broad, weak endotherm (approximate peak max) ([9]; Cycle 1, heat to 85° C.): Broad, weak endotherm at 75 °C
- Temperature cycling DSC: small endotherm (peak max) ([9]; Cycle 4, heat to 130° C., 10° C./min): Small endotherm at 112 °C (peak max)
- Temperature cycling DSC: sharp exotherm (peak max) ([9]; Cycle 7, heat to 200° C., 10° C./min): Sharp exotherm at 160 °C (peak max)
- DSC: broad endotherm (peak max) ([9]; conventional DSC): Broad endotherm at 64 °C (peak max)
- DSC: sharp strong exotherm (peak max) ([9]; conventional DSC): Sharp strong exotherm at 168 °C
- DSC: small endotherm (peak max) ([9]; conventional DSC): Small endotherm at 112 °C (peak max)
- DSC: small exotherm (peak max) ([9]; conventional DSC): Small exotherm at 145 °C (peak max)
- Modulated DSC: broad weak endotherm (peak max) [9, 16]: Broad weak endotherm at 47 °C
- Modulated DSC: heat flow fluctuations [9, 16]: Heat flow fluctuations above 140 °C
- Modulated DSC: small endotherm (peak max) [9, 16]: Small endotherm at 104 °C (peak max)
- Modulated DSC: small exotherm (peak max) [9, 16]: Small exotherm at 134 °C (peak max)
- Modulated DSC: Tg (midpoint of step change) ([9]; reversing heat flow): Tg at 101 °C (midpoint of step change)
- Modulated DSC: ΔCp ([9]; reversing heat flow, at Tg): (ΔCp 0.3 J/(g*K)

Structure (SMILES): C[C@H]1COc2c(N3CCN(C)CC3)c(F)cc3c(=O)c(C(=O)O)cn1c23 [Levofloxacin, reference compound]
- MIC (S. aureus [2]): 0.12 µg/mL (≈ 0.332 µM)
- MIC (Enterococcus spp.; E. faecalis MMX 8960, VRE): 32 µg/mL (≈ 88.6 µM)
- MIC (Enterococcus spp.; E. faecalis MMX 8961, VRE): 64 µg/mL (≈ 177 µM)
- MIC (Enterococcus spp.; E. faecalis MMX 8962, VRE): 64 µg/mL (≈ 177 µM)
- MIC (Enterococcus spp.; E. faecium MMX 485, VRE vanA): > 64 µg/mL
- MIC (Enterococcus spp.; E. faecium MMX 752, VRE vanA): > 64 µg/mL
- MIC ([10]; Streptococcus agalactiae, S. agalactiae MMX 3741): 0.25 µg/mL (≈ 0.692 µM)
- MIC ([10]; Streptococcus pyogenes, S. pyogenes MMX 5091): 0.5 µg/mL (≈ 1.38 µM)
- MIC [4]: > 4 µg/mL
